Here are results for two compounds from patent publication US11435353B2, “Method of evaluating drug resistance and treatment effect” (priority 2018, dated 2022).

Entries after “also recorded” stand apart in the source; their conditions may differ. Where two headings read alike, the source gives them in different places.

In data set [1] the test system is ER+ breast cancer cell (ZR-75-1). In words: MTT assay of cytotoxic effects in ZR-75-1 cells. The conditions noted are these: short-term treatment, FIG. 5C/5D. For orientation: Tetrazolium dyes change colour on reduction, which living cells bring about.
Description: (§6) Cell viability was analyzed by MTT (3, [4,5-dimethylthiazol-2-yl-]diphenyltetrazolium bromide, 5 mg/ml). Cells were seeding in 96-well plates and incubated overnight, and then changed into the fresh medium containing indicated concentrations of tamoxifen for 72 h. 50 μl of MTT was added to each well and incubated for 2 h, and the purple formazan crystals were dissolved in DMSO. The absorbance was measured by a microplate reader at a wavelength of 570 nm.
Data set [2] deals with SOX2 protein. In words: Western blot of SOX2 protein expression. The data set is classed as cell-based. As to the method: In order to identify the downstream modulator of TRBP, the tamoxifen-sensitive cells (MCF-7) were treated with 2 μM tamoxifen for 48 hours, and then RNA of the tamoxifen-sensitive cell (MCF-7) was isolated to analyze the mRNA expression of stem cell markers by using a reverse-transcription PCR (qRT-PCR), with the aforementioned experiment being repeated at least three times, and with ATP5E being used as a positive control for tamoxifen treatment (*P<0.05) by t-test. Then, the tamoxifen-sensitive cells (MCF-7) were further collected to analyze protein expression by using a western blot. Accordingly, we determined the expression of several key factors that have been reported to modulate self-renewal and drug resistance of cancer cells, including SOX2, Nanog, OCT4, Lin28A, CCND1.
(§1) On the other hands, similar experiments above are also performed to identify the upstream modulator of TRBP.
(§2) Whole cell extracts were lysed in RIPA buffer and collected to fractionate by SDSPAGE, and then transferred onto PVDF membranes according to the manufacture's protocols (Bio-Rad). After blocking with 5% nonfat milk in TBST for 60 min, membranes were washed and incubated with primary antibodies at 4° C. overnight. Membranes were washed three times for 10 min and incubated with secondary antibodies for 60 min. Protein expressions were visualized by ECL system according to the manufacture's protocols.

The test system of the next data set is Merlin. In words: Western blot of Merlin expression after tamoxifen treatment. It is filed as cell-based. The conditions noted are these: increasing concentrations, 48 hours. As to the method:
as §2

Data set [3] concerns SOX2 protein. As to the kind of experiment: SOX2 protein stability. It is filed as cell-based.
Data set [4] concerns tamoxifen-resistant cell (MCF-7/TR).
Description: as §6
The test system of the next data set is SOX2 mRNA. As to the kind of experiment: qRT-PCR of stem cell marker mRNA (SOX2). The conditions noted are these: MCF-7 cells, 2 μM, 48 hours, FIG. 8A/8F. It is filed as cell-based. As to the method:
(§3) Then, the tamoxifen-sensitive cells (MCF-7) were further collected to analyze protein expression by using a western blot.
After that, RNA was isolated from the tamoxifen-sensitive cell (MCF-7) to analyze the mRNA expression of SOX2 by using a reverse-transcription PCR (qRT-PCR).
(§4) Total RNA was isolated by using Trizol reagent according to the manufacturer's instructions. 200 ng of RNA was reverse transcribed to complementary DNA (cDNA) by using a reverse transcriptase enzyme, a random primer, dNTPs and an RNase inhibitor. Real-time PCR was performed by Applied Biosystem Step One Real-time PCR system (Applied Biosystems) according to manufacturer's protocols. Samples run in three independent experiments and GAPDH or α-tubulin were used as an internal control to normalize the target genes.

The next data set concerns TRBP. As to the kind of experiment: Western blot of TRBP expression after tamoxifen or 4OHT treatment. It is filed as cell-based. The conditions noted are these: 48 hours. As to the method:
as §1, §2
A general note: A western blot detects proteins with antibodies after separation by electrophoresis.

The next data set has as its system TRBP mRNA. As to the kind of experiment: qRT-PCR of TRBP mRNA level. The data set is classed as cell-based. The conditions noted are these: FIG. 7A. As to the method: (§5) Then, in order to investigate changes in TRBP protein stability, the […] of TRBP was analyzed by further treating the tamoxifen-resistant cell (MCF-7/TR) and the tamoxifen-resistant cell (MCF-7/TR1) with 50 μg/ml cycloheximide (CHX) to block de novo protein synthesis, followed by harvesting the tamoxifen-resistant cell (MCF-7/TR) and the tamoxifen-resistant cell (MCF-7/TR1) at an indicated time point to analyze the expression of TRBP in the tamoxifen-resistant cell (MCF-7/TR) and the tamoxifen-resistant cell through another western blot, wherein the degradation rates were plotted for the average±SEM of at least three independent experiments and analyzed by two-way ANOVA (*P≤0.05 and **P≤0.01).
as §4
For orientation: In qPCR the cycle at which signal appears reflects the starting amount.

In a further data set the test system is cyclin D1. As to the kind of experiment: qRT-PCR and western blot of cyclin D1. The data set is classed as cell-based. The conditions noted are these: MCF-7 cells, 2 μM, 48 hours, FIG. 8A/8B. How it is done: as §3, §2, §4
The next data set concerns p-AKT. In words: Western blot of p-AKT. The data set is classed as cell-based. The conditions noted are these: left of FIG. 8K. How it is done: as §1, §2
The subject of data set [5] is ER+ breast cancer cell (ZR-75-1).
Description: as §6
The next data set has as its system TRBP protein. As to the kind of experiment: Cycloheximide chase, TRBP protein stability by western blot. The data set is classed as cell-based. How it is done:
as §5, §2

Consider 4-hydroxytamoxifen, for which the “cytotoxic effects (MTT)” value in data set [1] is recorded as “noncytotoxic”.
`CC/C(=C(\c1ccccc1)c1ccc(OCCN(C)C)cc1)c1ccccc1` [tamoxifen]: in the data set with SOX2 protein [2] (MCF-7 cells, 2 μM, 48 hours, FIG. 8B), the “expression of SOX2 protein” value is recorded as “upregulated expression of SOX2 protein”. In the data set on SOX2 protein [2] (right of FIG. 8K), the “SOX2 level after tamoxifen treatment” value was “elevated-SOX2 level”. For the same compound, the “expression of Merlin” value with Merlin (MCF-7 cells, FIG. 7D) is given as “suppressed in a dose-dependent manner”; in the data set with Merlin (ZR-75-1 cells, FIG. 7E), “suppressed in a dose-dependent manner”. Further, the SOX2 protein degradation entry is recorded as “degraded more slowly” in the data set on SOX2 protein [3] (tamoxifen-treated vs untreated MCF-7, FIG. 8G) and “degraded more slowly” with SOX2 protein [3] (tamoxifen-treated vs untreated MCF-7/TR, FIG. 8H). For the same compound, the “cytotoxic effects (MTT)” value is “without inducing any significant cytotoxic effects” in data set [4] and “noncytotoxic” in data set [5]. In addition, the “expression of SOX2 mRNA” value in the data set on SOX2 mRNA is listed as “upregulated; also recorded: enhanced SOX2 expression”. In addition, the TRBP expression result in the data set with TRBP (ER- Hs578T cells, FIG. 5E) is “no significant induction of TRBP”; in the data set with TRBP (ER- MDA-MB-231 cells, FIG. 5E), “no significant induction of TRBP”; in the data set with TRBP (ER- SKBR3 cells, FIG. 5E) it was “no significant induction of TRBP”; in the data set with TRBP (MCF-7/TR cells, increasing concentrations, FIG. 5A/5B), “induced the TRBP expression in a dose-dependent manner”. In addition, the “TRBP mRNA level” value in the data set with TRBP mRNA (MCF-7/TR1 cells) and in the data set with TRBP mRNA (MCF-7/TR cells pretreated with 2 μM tamoxifen for 48 hours) was “not significantly changed” each time. Further, the “cyclin D1 expression” value with cyclin D1 is “reduction of cyclin D1”. For the same compound, the “p-AKT level after tamoxifen treatment” value with p-AKT is listed as “elevated-AKT level”. Moreover, the “degradation of TRBP protein” value was “significant prolonged degradation of TRBP protein” in the data set on TRBP protein (tamoxifen-treated vs untreated MCF-7, 50 μg/ml cycloheximide, FIG. 7B) and “significant prolonged degradation of TRBP protein” in the data set on TRBP protein (tamoxifen-treated vs untreated MCF-7/TR1, 50 μg/ml cycloheximide, FIG. 7C).
